Starred links: 1 amine or outer side, 2 acyl side, 3 side chain; linkers in the order of their positions; H or OH if unused. Non-standard residues stand in square brackets, D forms with d. Residues, ends and D or L forms follow the SMILES beside them. Phe(4-(trans-4-COOH-cHex)) = N[C@@H](Cc1ccc([C@H]2CC[C@H](C(=O)O)CC2)cc1)C(=O)O; Phe(4-(cis-4-COOH-cHex)) = N[C@@H](Cc1ccc([C@H]2CC[C@@H](C(=O)O)CC2)cc1)C(=O)O; Phe(4-(5-CO2H-2-pyrimidyl)) = N[C@@H](Cc1ccc(-c2ncc(C(=O)O)cn2)cc1)C(=O)O; dPro(4R-(4-pyridylmethyl)) = O=C(O)[C@H]1C[C@@H](Cc2ccncc2)CN1; Trp(βS-Me,4-F) = C[C@@H](c1c[nH]c2cccc(F)c12)[C@H](N)C(=O)O; 3Aminoazetidine3carboxyl = O=C(C1(N[*:1])CN([*:3])C1)[*:2]; Bip(4'-COOH) = N[C@@H](Cc1ccc(-c2ccc(C(=O)O)cc2)cc1)C(=O)O; Ala(1-bicyclo(1.1.1)pentyl) = N[C@@H](CC12CC(C1)C2)C(=O)O; dPro(4R-Bzl(4-F)) = O=C(O)[C@H]1C[C@@H](Cc2ccc(F)cc2)CN1; X14 = O=C([C@H]1[C@@H](Cc2ccccc2)CCN1[*:1])[*:2]; X9 = O=C([C@H]1[C@@H](Cc2cncnc2)CCN1[*:1])[*:2]; Ala(pyrimidin-5-yl) = N[C@@H](Cc1cncnc1)C(=O)O; Phe(4-COOH) = N[C@@H](Cc1ccc(C(=O)O)cc1)C(=O)O; Pro(cis-4-F) = O=C(O)[C@@H]1C[C@H](F)CN1; AEF = NCCOc1ccc(C[C@H](N)C(=O)O)cc1; 2Pal = N[C@@H](Cc1ccccn1)C(=O)O; 3Pal = N[C@@H](Cc1cccnc1)C(=O)O; 4Pal = N[C@@H](Cc1ccncc1)C(=O)O; Dab = NCC[C@H](N)C(=O)O; Aib = CC(C)(N)C(=O)O

T1 sequence (P01584 117-269): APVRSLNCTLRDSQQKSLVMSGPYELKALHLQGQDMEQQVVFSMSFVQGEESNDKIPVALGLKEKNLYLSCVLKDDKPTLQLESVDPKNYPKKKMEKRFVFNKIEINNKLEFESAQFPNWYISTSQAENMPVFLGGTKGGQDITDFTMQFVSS

This experiment addresses T1, IL-1β (Homo sapiens, UniProt P01584).
T1 construct: purchased BioLegend 579404
Nature of the experiment: IL-6 assay in MRC5 cells: inhibition of IL-1β induced IL-6 secretion (AlphaLISA). As to conditions: inhibition of IL-1β induced IL-6 secretion in MRC5 cells; read-out: MRC5 IC50. The experiment is classed as cell-based. The essentials:
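Compound was pre-incubated 1 h at ambient temperature with recombinant human IL-1β at 2λ EC80 before adding human lung fibroblast MRC5 cells (3000/well) in EMEM with 0.025% BSA. After overnight culture at 37 °C, 5% CO2, secreted IL-6 in conditioned medium was measured by AlphaLISA; IC50 from 4-parameter logistic fits.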
On the technique in general: Alpha assays give light when donor and acceptor beads are brought close together.
In the case of `C[C@@H](c1c[nH]c2cccc(F)c12)[C@@H]1NC(=O)[C@@H]2C[C@H](F)CN2C(=O)CNC(=O)[C@H](Cc2ccc(C(=O)O)cc2)NC(=O)[C@H](Cc2ccncc2)NC(=O)[C@H](Cc2ccc([C@H]3CC[C@H](C(=O)O)CC3)cc2)NC(=O)[C@H]2C[C@@H](Cc3ccc(F)cc3)CN2C(=O)CNC(=O)[C@H](CCN)NC(=O)[C@H](CCC(N)=O)NC(=O)[C@H](Cc2cncnc2)NC(=O)C2(CNC2)NC(=O)[C@H](Cc2c[nH]c3ccccc23)NC(=O)[C@H](CCC(=O)O)NC(=O)C(C)(C)NC1=O` [Example 68] (cyclo([Phe(4-(trans-4-COOH-cHex))][4Pal][Phe(4-COOH)]G[Pro(cis-4-F)][Trp(βS-Me,4-F)][Aib]EW[3Aminoazetidine3carboxyl][Ala(pyrimidin-5-yl)]Q[Dab]G[dPro(4R-Bzl(4-F))])), the IC50 came to 0.029 nM.
With `C[C@@H](c1c[nH]c2cccc(F)c12)[C@@H]1NC(=O)[C@@H]2C[C@H](F)CN2C(=O)CNC(=O)[C@H](Cc2ccc(C(=O)O)cc2)NC(=O)[C@H](Cc2ccncc2)NC(=O)[C@H](Cc2ccc([C@H]3CC[C@@H](C(=O)O)CC3)cc2)NC(=O)[C@H]2C[C@@H](Cc3ccc(F)cc3)CN2C(=O)CNC(=O)[C@H](CCN)NC(=O)[C@H](CCC(N)=O)NC(=O)[C@H](Cc2cncnc2)NC(=O)C2(CNC2)NC(=O)[C@H](Cc2c[nH]c3ccccc23)NC(=O)[C@H](CCC(=O)O)NC(=O)C(C)(C)NC1=O` [Example 69] (cyclo([Phe(4-(cis-4-COOH-cHex))][4Pal][Phe(4-COOH)]G[Pro(cis-4-F)][Trp(βS-Me,4-F)][Aib]EW[3Aminoazetidine3carboxyl][Ala(pyrimidin-5-yl)]Q[Dab]G[dPro(4R-Bzl(4-F))])) the figure was 0.03 nM; with `C[C@@H](c1c[nH]c2cccc(F)c12)[C@@H]1NC(=O)[C@@H]2C[C@H](F)CN2C(=O)CNC(=O)[C@H](Cc2ccc(C(=O)O)cc2)NC(=O)[C@H](Cc2ccncc2)NC(=O)[C@H](Cc2ccc(-c3ccc(C(=O)O)cc3)cc2)NC(=O)[C@H]2[C@@H](Cc3cncnc3)CCN2C(=O)CNC(=O)[C@H](CCN)NC(=O)[C@H](CCC(N)=O)NC(=O)[C@H](Cc2cncnc2)NC(=O)C(C)(C)NC(=O)[C@H](Cc2c[nH]c3ccccc23)NC(=O)[C@H](CCC(=O)O)NC(=O)C(C)(C)NC1=O` [Example 71] (cyclo([Bip(4'-COOH)][4Pal][Phe(4-COOH)]G[Pro(cis-4-F)][Trp(βS-Me,4-F)][Aib]EW[Aib][Ala(pyrimidin-5-yl)]Q[Dab]G[X9])), 0.058 nM.
For `C[C@@H](c1c[nH]c2cccc(F)c12)[C@@H]1NC(=O)[C@@H]2C[C@H](F)CN2C(=O)CNC(=O)[C@H](Cc2ccc(C(=O)O)cc2)NC(=O)[C@H](Cc2ccncc2)NC(=O)[C@H](Cc2ccc(-c3ccc(C(=O)O)cc3)cc2)NC(=O)[C@H]2C[C@@H](Cc3ccc(F)cc3)CN2C(=O)CNC(=O)[C@H](CCN)NC(=O)[C@H](CCC(N)=O)NC(=O)[C@H](Cc2cccnc2)NC(=O)C(C)(C)NC(=O)[C@H](Cc2c[nH]c3ccccc23)NC(=O)[C@H](CCC(=O)O)NC(=O)C(C)(C)NC1=O` [Example 72] (cyclo([3Pal]Q[Dab]G[dPro(4R-Bzl(4-F))][Bip(4'-COOH)][4Pal][Phe(4-COOH)]G[Pro(cis-4-F)][Trp(βS-Me,4-F)][Aib]EW[Aib])), the IC50 amounted to 0.027 nM.
In the case of `C[C@@H](c1c[nH]c2cccc(F)c12)[C@@H]1NC(=O)[C@@H]2C[C@H](F)CN2C(=O)CNC(=O)[C@H](Cc2ccc(C(=O)O)cc2)NC(=O)[C@H](Cc2ccncc2)NC(=O)[C@H](Cc2ccc(-c3ccc(C(=O)O)cc3)cc2)NC(=O)[C@H]2C[C@@H](Cc3ccc(F)cc3)CN2C(=O)CNC(=O)[C@H](CCN)NC(=O)[C@H](CCC(N)=O)NC(=O)[C@H](Cc2ccccn2)NC(=O)C(C)(C)NC(=O)[C@H](Cc2c[nH]c3ccccc23)NC(=O)[C@H](CCC(=O)O)NC(=O)C(C)(C)NC1=O` [Example 73] (cyclo([Bip(4'-COOH)][4Pal][Phe(4-COOH)]G[Pro(cis-4-F)][Trp(βS-Me,4-F)][Aib]EW[Aib][2Pal]Q[Dab]G[dPro(4R-Bzl(4-F))])), the IC50 is 0.031 nM.
With `C[C@@H](c1c[nH]c2cccc(F)c12)[C@@H]1NC(=O)[C@@H]2C[C@H](F)CN2C(=O)CNC(=O)[C@H](Cc2ccc(C(=O)O)cc2)NC(=O)[C@H](Cc2ccncc2)NC(=O)[C@H](Cc2ccc(-c3ccc(C(=O)O)cc3)cc2)NC(=O)[C@H]2C[C@@H](Cc3ccc(F)cc3)CN2C(=O)CNC(=O)[C@H](CCCNC(=N)N)NC(=O)[C@H](CCC(N)=O)NC(=O)[C@H](Cc2ccncc2)NC(=O)C(C)(C)NC(=O)[C@H](Cc2c[nH]c3ccccc23)NC(=O)[C@H](CCC(=O)O)NC(=O)C(C)(C)NC1=O` [Example 76] (cyclo([Bip(4'-COOH)][4Pal][Phe(4-COOH)]G[Pro(cis-4-F)][Trp(βS-Me,4-F)][Aib]EW[Aib][4Pal]QRG[dPro(4R-Bzl(4-F))])) the figure was 0.059 nM; with `CC(=O)NCCOc1ccc(C[C@@H]2NC(=O)[C@H]3[C@@H](Cc4ccccc4)CCN3C(=O)CNC(=O)[C@H](CCN)NC(=O)[C@H](CCC(N)=O)NC(=O)[C@H](Cc3cncnc3)NC(=O)C(C)(C)NC(=O)[C@H](Cc3c[nH]c4ccccc34)NC(=O)[C@H](CCC(=O)O)NC(=O)C(C)(C)NC(=O)[C@H]([C@@H](C)c3c[nH]c4cccc(F)c34)NC(=O)[C@@H]3C[C@H](F)CN3C(=O)CNC(=O)[C@H](Cc3ccc(C(=O)O)cc3)NC(=O)[C@H](Cc3ccncc3)NC2=O)cc1` [Example 78] (cyclo([AEF](Ac)[4Pal][Phe(4-COOH)]G[Pro(cis-4-F)][Trp(βS-Me,4-F)][Aib]EW[Aib][Ala(pyrimidin-5-yl)]Q[Dab]G[X14])), 0.036 nM.
To `C[C@@H](c1c[nH]c2cccc(F)c12)[C@@H]1NC(=O)[C@@H]2C[C@H](F)CN2C(=O)CNC(=O)[C@H](Cc2ccc(C(=O)O)cc2)NC(=O)[C@H](Cc2ccncc2)NC(=O)[C@H](Cc2ccc(-c3ncc(C(=O)O)cn3)cc2)NC(=O)[C@H]2C[C@@H](Cc3ccc(F)cc3)CN2C(=O)CNC(=O)[C@H](CCN)NC(=O)[C@H](CCC(N)=O)NC(=O)[C@H](Cc2ccncc2)NC(=O)C2(CNC2)NC(=O)[C@H](Cc2c[nH]c3ccccc23)NC(=O)[C@H](CCC(=O)O)NC(=O)C(C)(C)NC1=O` [Example 81] (cyclo([Phe(4-(5-CO2H-2-pyrimidyl))][4Pal][Phe(4-COOH)]G[Pro(cis-4-F)][Trp(βS-Me,4-F)][Aib]EW[3Aminoazetidine3carboxyl][4Pal]Q[Dab]G[dPro(4R-Bzl(4-F))])) belongs 0.049 nM; to `C[C@@H](c1c[nH]c2cccc(F)c12)[C@@H]1NC(=O)[C@@H]2C[C@H](F)CN2C(=O)CNC(=O)[C@H](Cc2ccc(C(=O)O)cc2)NC(=O)[C@H](CC23CC(C2)C3)NC(=O)[C@H](Cc2ccc(-c3ncc(C(=O)O)cn3)cc2)NC(=O)[C@H]2C[C@@H](Cc3ccc(F)cc3)CN2C(=O)CNC(=O)[C@H](CCN)NC(=O)[C@H](CCC(N)=O)NC(=O)[C@H](Cc2cncnc2)NC(=O)C(C)(C)NC(=O)[C@H](Cc2c[nH]c3ccccc23)NC(=O)[C@H](CCC(=O)O)NC(=O)C(C)(C)NC1=O` [Example 82] (cyclo([Phe(4-(5-CO2H-2-pyrimidyl))][Ala(1-bicyclo(1.1.1)pentyl)][Phe(4-COOH)]G[Pro(cis-4-F)][Trp(βS-Me,4-F)][Aib]EW[Aib][Ala(pyrimidin-5-yl)]Q[Dab]G[dPro(4R-Bzl(4-F))])), 0.054 nM; to `C[C@@H](c1c[nH]c2cccc(F)c12)[C@@H]1NC(=O)[C@@H]2C[C@H](F)CN2C(=O)CNC(=O)[C@H](Cc2ccc(C(=O)O)cc2)NC(=O)[C@H](CC23CC(C2)C3)NC(=O)[C@H](Cc2ccc(-c3ncc(C(=O)O)cn3)cc2)NC(=O)[C@H]2C[C@@H](Cc3ccc(F)cc3)CN2C(=O)CNC(=O)[C@H](CCN)NC(=O)[C@H](CCC(N)=O)NC(=O)[C@H](Cc2cncnc2)NC(=O)C(C)(C)NC(=O)[C@H](Cc2c[nH]c3ccccc23)NC(=O)[C@H](CO)NC(=O)C(C)(C)NC1=O` [Example 83] (cyclo([Phe(4-(5-CO2H-2-pyrimidyl))][Ala(1-bicyclo(1.1.1)pentyl)][Phe(4-COOH)]G[Pro(cis-4-F)][Trp(βS-Me,4-F)][Aib]SW[Aib][Ala(pyrimidin-5-yl)]Q[Dab]G[dPro(4R-Bzl(4-F))])), 0.045 nM.
To `C[C@@H](c1c[nH]c2cccc(F)c12)[C@@H]1NC(=O)[C@@H]2C[C@H](F)CN2C(=O)CNC(=O)[C@H](Cc2ccc(C(=O)O)cc2)NC(=O)[C@H](CC23CC(C2)C3)NC(=O)[C@H](Cc2ccc(-c3ncc(C(=O)O)cn3)cc2)NC(=O)[C@H]2C[C@@H](Cc3ccc(F)cc3)CN2C(=O)CNC(=O)[C@H](CCN)NC(=O)[C@H](CCC(N)=O)NC(=O)[C@H](Cc2ccncc2)NC(=O)C(C)(C)NC(=O)[C@H](Cc2c[nH]c3ccccc23)NC(=O)[C@H](CO)NC(=O)C(C)(C)NC1=O` [Example 84] (cyclo([Phe(4-(5-CO2H-2-pyrimidyl))][Ala(1-bicyclo(1.1.1)pentyl)][Phe(4-COOH)]G[Pro(cis-4-F)][Trp(βS-Me,4-F)][Aib]SW[Aib][4Pal]Q[Dab]G[dPro(4R-Bzl(4-F))])) belongs 0.047 nM; to `C[C@@H]1NC(=O)C(C)(C)NC(=O)[C@H]([C@@H](C)c2c[nH]c3cccc(F)c23)NC(=O)[C@@H]2C[C@H](F)CN2C(=O)CNC(=O)[C@H](Cc2ccc(C(=O)O)cc2)NC(=O)[C@H](Cc2ccncc2)NC(=O)[C@H](Cc2ccc(-c3ncc(C(=O)O)cn3)cc2)NC(=O)[C@H]2C[C@@H](Cc3ccncc3)CN2C(=O)CNC(=O)[C@H](CCN)NC(=O)[C@H](CCC(N)=O)NC(=O)[C@H](Cc2ccncc2)NC(=O)C(C)(C)NC(=O)[C@H](Cc2c[nH]c3ccccc23)NC1=O` [Example 85] (cyclo([Phe(4-(5-CO2H-2-pyrimidyl))][4Pal][Phe(4-COOH)]G[Pro(cis-4-F)][Trp(βS-Me,4-F)][Aib]AW[Aib][4Pal]Q[Dab]G[dPro(4R-(4-pyridylmethyl))])), 0.074 nM.

The IC50 is the point on the concentration scale where inhibition reaches its midpoint.
